The text below walks through data of patent publication US20220267300A1 (NodThera Limited, priority 2019, published 2022).

Molecules are shown by their SMILES.

In the experiment the test system is IL-1β release upon NLRP3 activation in peripheral blood mononuclear cells (PBMC). As to the kind of experiment: PBMC IC50 determination assay (inhibition of IL-1β release). It counts as cell-based. The settings on record: Homo sapiens; IL-1β release from LPS-primed PBMC stimulated with ATP (5 mM) or nigericin (10 μM); ELISA or HTRF; corresponding sodium salts evaluated. As for the experimental part:
The compounds of the present disclosure were tested for their inhibitory activity against IL-1β release upon NLRP3 activation in peripheral blood mononuclear cells (PBMC).
Protocol A. PBMC were isolated from buffy coats by density gradient centrifugation on Histopaque-1077 (Sigma, cat no. 10771). Isolated cells were seeded into the wells of a 96-well plate and incubated for 3 h with lipopolysaccharide (LPS). Following medium exchange, the compounds of the present disclosure were added (a single compound per well) and the cells were incubated for 30 min. Next, the cells were stimulated either with ATP (5 mM) or nigericin (10 μM) for 1 h and the cell culture media from the wells were collected for further analysis.
The release of IL-1β into the media was determined by a quantitative detection of IL-1β in the media using an IL-1β enzyme-linked immunosorbent assay (ELISA) Ready-SET-Go!, eBioscience cat. No. 88-7261-88. Briefly, in a first step, high affinity binding plates (Corning, Costar 9018 or NUNC Maxisorp Cat No. 44-2404) were coated overnight at 4° C. with specific capture antibody included in the kit (anti-human IL-1β ref. 14-7018-68). Subsequently, plates were blocked with blocking buffer for 1 h at room temperature (rt) and after washing with a buffer (PBS with 0.05% Tween-20) incubated with protein standard and culture media. After 2 h of incubation at rt, plates were washed and incubated with biotinylated detection antibody included in the kit (anti-human IL-1β Biotin ref. 33-7110-68) for 1 h at rt. Plates were washed and incubated with HRP-streptavidin for 30 min at rt and washed again. The signal was developed after addition of 3,3′,5,5′-tetramethylbenzidine-peroxidase (TMB) until colour appeared and the reaction was stopped by 2 M H2SO4. A microplate spectrophotometer (BioTek) was used to detect signals with 450 nm. The detection range of IL-1β ELISA was 2-150 ng/ml.
Protocol B. PBMC were isolated from buffy coats by density gradient centrifugation on Histopaque-1077 (Sigma, cat no. 10771). Isolated cells were seeded into the wells (280,000 cells/well) of a 96-well plate and incubated for 3 h with lipopolysaccharide (LPS, 1 μg/ml diluted 1000× from a 1 mg/ml stock solution). The compounds of the present disclosure were added (a single compound per well) and the cells were incubated for 30 min. Next, the cells were stimulated with ATP (5 mM final concentration diluted 20× from a 100 mM stock solution) for 1 h and the cell culture media from the wells were collected for further analysis.
The release of IL-1β into the media was determined by quantitative detection of IL-1β in the media using HTRF®, CisBio cat. No. 62HIL1BPEH. Briefly, cell culture supernatant were dispensed directly into the assay plate containing antibodies labelled with the HTRF® donor and acceptor. A microplate spectrophotometer (BMG) was used to detect signals at 655 nm and 620 nm. The detection range of IL-1β HTRF® was 39-6500 pg/ml.
As to `CN1CCCC(N(c2cnn(C)c2)S(N)(=O)=NC(=O)Cc2c3c(cc4c2CCC4)CCC3)C1` (centres unmarked) [Example 13, N-{Amino[(1-methyl-1H-pyrazol-4-yl)(1-methylpiperidin-3-yl)amino]oxo-lambda6-sulfanylidene}-2-(1,2,3,5,6,7-hexahydro-s-indacen-4-yl)acetamide], the IC50 was in the range of 3 to 10 µM. As for `CN(CCN(c1cnn(C)c1)S(=O)(=O)NC(=O)Cc1c2c(cc3c1CCC3)CCC2)C(=O)OCc1ccccc1` [Example 25, Benzyl N-[2-({[2-(1,2,3,5,6,7-hexahydro-s-indacen-4-yl)acetamido]sulfonyl}(1-methyl-1H-pyrazol-4-yl)amino)ethyl]-N-methylcarbamate], the IC50 was 3 to 10 µM. The result for `Cc1ccc(C(C)C)cc1CC(=O)NS(=O)(=O)N(c1cnn(C)c1)C1CCCN(C)C1` (centres unmarked) [Example 48] reads no less than 50 µM; that for `CC(C)c1ccc(Cl)c(C(C)C)c1CC(=O)NS(=O)(=O)N(C[C@@H]1CCCN1C)c1cnn(C)c1` [Example 12, 2-[3-Chloro-2,6-bis(propan-2-yl)phenyl]-N-[(1-methyl-1H-pyrazol-4-yl)({[(2S)-1-methylpyrrolidin-2-yl]methyl})sulfamoyl]acetamide], 3 to 10 µM. For the compound `CC(C)c1cc(CC(=O)N=S(N)(=O)N(c2cnn(C)c2)C2CCCN(C)C2)c(C(C)C)s1` (centres unmarked) [Example 15, N-{Amino[(1-methyl-1H-pyrazol-4-yl)(1-methylpiperidin-3-yl)amino]oxo-lambda6-sulfanylidene}-2-[2,5-bis(propan-2-yl)thiophen-3-yl]acetamide], the IC50 lay in the range of 10 to 50 µM. For `CC(C)c1cc(CC(=O)NS(=O)(=O)N(C[C@@H]2CCCN2C)c2cnn(C)c2)cc(C(C)C)c1` [Example 5, 2-[3,5-Bis(propan-2-yl)phenyl]-N-[(1-methyl-1H-pyrazol-4-yl)({[(2S)-1-methylpyrrolidin-2-yl]methyl})sulfamoyl]acetamide] the value was less than 1 µM; for `COc1cc(-c2cc(F)cc(C(C)C)c2CC(=O)NS(=O)(=O)N(c2cnn(C)c2)C2CCCN(C)C2)ccn1` (centres unmarked) [Example 28, 2-[4-Fluoro-2-isopropyl-6-(2-methoxy-4-pyridyl)phenyl]-N-[(1-methyl-3-piperidyl)-(1-methylpyrazol-4-yl)sulfamoyl]acetamide], 3 to 10 µM; for `Cn1cc(N(CCNC(=O)OCc2ccccc2)S(=O)(=O)NC(=O)Cc2c3c(cc4c2CCC4)CCC3)cn1` [Example 21], 3 to 10 µM. Regarding `CN1CCC[C@H]1CN(c1cnn(C)c1)S(=O)(=O)NC(=O)Cc1cc(Cl)cc(OCC(F)(F)F)c1` [Example 51], the IC50 is no less than 50 µM. `CN(C)CCN(c1cnn(C)c1)S(=O)(=O)NC(=O)Cc1c2c(cc3c1CCC3)CCC2` [Example 18, N-{[2-(Dimethylamino)ethyl](1-methyl-1H-pyrazol-4-yl)sulfamoyl}-2-(1,2,3,5,6,7-hexahydro-s-indacen-4-yl)acetamide]: the IC50 lay within 1 to 3 µM. For the compound `CN1CCC[C@H]1CN(c1cnn(C)c1)S(=O)(=O)NC(=O)Cc1ccc(C(F)(F)F)cc1Cl` [Example 37], the IC50 was no less than 50 µM. For `CC(C)c1cc(CC(=O)NS(=O)(=O)N(C[C@@H]2CCCN2C)c2cnn(C)c2)cc(C(C)C)c1Cl` [Example 55], the IC50 fell in the range of 10 to 50 µM. For `CN1CCC[C@@H]1CN(c1cnn(C)c1)S(=O)(=O)NC(=O)Cc1cc(C(C)(C)C)cc(C(C)(C)C)c1` [Example 54] the value was 10 to 50 µM. For the compound `CC(C)c1cc(CC(=O)NS(=O)(=O)N(c2cnn(C)c2)C2CCCN(C)C2)cc(C(C)C)c1` (centres unmarked) [Example 3], the IC50 was in the range of 10 to 50 µM. As to `CC(C)c1cc(CC(=O)NS(=O)(=O)N(c2cnn(C)c2)C2CCCN(C)C2)c(C(C)C)s1` (centres unmarked) [Example 14, 2-[2,5-Bis(propan-2-yl)thiophen-3-yl]-N-[(1-methyl-1H-pyrazol-4-yl)(1-methylpiperidin-3-yl)sulfamoyl]acetamide], the IC50 was less than 1 µM.

As for `Cn1cc(N(C2CCCN(C(=O)OCc3ccccc3)C2)S(=O)(=O)NC(=O)Cc2c3c(cc4c2CCC4)CCC3)cn1` (centres unmarked) [Example 19, Benzyl 3-({[2-(1,2,3,5,6,7-hexahydro-s-indacen-4-yl)acetamido]sulfonyl}(1-methyl-1H-pyrazol-4-yl)amino)piperidine-1-carboxylate], the IC50 fell in the range of 3 to 10 µM. The result for `Cn1cc(N(CCNCC(F)F)S(=O)(=O)NC(=O)Cc2c3c(cc4c2CCC4)CCC3)cn1` [Example 24, N-({2-[(2,2-Difluoroethyl)amino]ethyl}(1-methyl-1H-pyrazol-4-yl)sulfamoyl)-2-(1,2,3,5,6,7-hexahydro-s-indacen-4-yl)acetamide] reads less than 1 µM. Take `Cc1cc(CC(=O)NS(=O)(=O)N(c2cnn(C)c2)C2CCCN(C)C2)cc(C(F)(F)F)c1` (centres unmarked) [Example 2, N-[(1-Methyl-1H-pyrazol-4-yl)(1-methylpiperidin-3-yl)sulfamoyl]-2-[3-methyl-5-(trifluoromethyl)phenyl]acetamide]: the IC50 was in the range of 10 to 50 µM.

For `CN1CCC(N(c2cnn(C)c2)S(=O)(=O)NC(=O)Cc2c3c(cc4c2CC4)CC3)CC1` [Example 29, N-[(1-methyl-4-piperidyl)-(1-methylpyrazol-4-yl)sulfamoyl]-2-(2-tricyclo[6.2.0.03,6]deca-1(8),2,6-trienyl)acetamide], the IC50 is 1 to 3 µM. `CN1CCCC(N(c2cnn(C)c2)S(=O)(=O)NC(=O)Cc2cc(Cl)cc(C(F)(F)F)c2)C1` (centres unmarked) [Example 4, 2-[3-Chloro-5-(trifluoromethyl)phenyl]-N-[(1-methyl-1H-pyrazol-4-yl)(1-methylpiperidin-3-yl)sulfamoyl]acetamide]: the IC50 lay in the range of 10 to 50 µM. In the case of `Cn1cc(N(CCCNC(=O)OCc2ccccc2)S(=O)(=O)NC(=O)Cc2c3c(cc4c2CCC4)CCC3)cn1` [Example 27, Benzyl N-[3-[[2-(1,2,3,5,6,7-hexahydro-s-indacen-4-yl)acetyl]sulfamoyl-(1-methylpyrazol-4-yl)amino]propyl]carbamate], the IC50 was 1 to 3 µM. With `CN1CCC[C@H]1CN(c1cnn(C)c1)S(=O)(=O)NC(=O)Cc1cc(C(C)(C)C)cc(C(C)(C)C)c1` [Example 52], the IC50 was no less than 50 µM.

Take `Cn1cc(N(CCCN)S(=O)(=O)NC(=O)Cc2c3c(cc4c2CCC4)CCC3)cn1` [Example 34]: the IC50 is no less than 50 µM. Consider `CN1CCCC(N(c2cnn(C)c2)S(=O)(=O)NC(=O)Cc2c3c(cc4c2CCC4)CCC3)C1` (centres unmarked) [Example 17, 2-(1,2,3,5,6,7-Hexahydro-s-indacen-4-yl)-N-[(1-methyl-1H-pyrazol-4-yl)(1-methylpiperidin-3-yl)sulfamoyl]acetamide], for which the IC50 was less than 1 µM.

As to `Cc1cc(C)cc(CC(=O)NS(=O)(=O)N(c2cnn(C)c2)C2CCCN(C)C2)c1` (centres unmarked) [Example 32], the IC50 is no less than 50 µM. For `CC(C)c1cc(Cl)cc(CC(=O)NS(=O)(=O)N(C[C@@H]2CCCN2C)c2cnn(C)c2)c1` [Example 8, 2-[3-Chloro-5-(propan-2-yl)phenyl]-N-[(1-methyl-1H-pyrazol-4-yl)({[(2S)-1-methylpyrrolidin-2-yl]methyl})sulfamoyl]acetamide], the IC50 was 1 to 3 µM. With `CN1CCC[C@H]1CN(c1cnn(C)c1)S(=O)(=O)NC(=O)Cc1cc(Cl)cc(C(C)(C)C)c1` (stereo in doubt) [Example 56], the IC50 was no less than 50 µM. For the compound `Cn1cc(N(CCN)S(=O)(=O)NC(=O)Cc2c3c(cc4c2CCC4)CCC3)cn1` [Example 22, N-[(2-Aminoethyl)(1-methyl-1H-pyrazol-4-yl)sulfamoyl]-2-(1,2,3,5,6,7-hexahydro-s-indacen-4-yl)acetamide], the IC50 was in the range of 10 to 50 µM.

For `CC(=O)N(C)CCN(c1cnn(C)c1)S(=O)(=O)NC(=O)Cc1c2c(cc3c1CCC3)CCC2` [Example 26, 2-(1,2,3,5,6,7-Hexahydro-s-indacen-4-yl)-N-[(1-methyl-1H-pyrazol-4-yl)[2-(N-methylacetamido)ethyl]sulfamoyl]acetamide], the IC50 lay in the range of 3 to 10 µM. For `CC(C)c1cc(F)cc(C(C)C)c1CC(=O)NS(=O)(=O)N(c1cnn(C)c1)C1CCN(C)CC1` [Example 31] the value was no less than 50 µM. Turning to `CC(C)c1cc(Cl)cc(C(C)C)c1CC(=O)NS(=O)(=O)N(C[C@@H]1CCCN1C)c1cnn(C)c1` [Example 40], the half-inhibitory concentration (IC50) is no less than 50 µM. With `CC(C)c1cc(CC(=O)N=S(N)(=O)N(c2cnn(C)c2)C2CCCN(C)C2)cc(C(C)C)c1` (centres unmarked) [Example 41], the half-maximal inhibitory concentration (IC50) was in the range of 3 to 10 µM.

The term IC50 denotes the concentration that inhibits the measured activity by half.
